According to patent US20200407398A1, “Short Proline-Rich Lipopeptide Potentiates Minocycline and Rifampicin Against Multidrug-and Extensively Drug-Resistant Pseudomonas Aeruginosa” (priority 2018, published 2020):
Where two headings read alike, the source gives them in different places. Peptide text beside a SMILES is read from it. * marks the point of attachment. Acetyl(1-adamantyl) = O=C(CC12CC3CC(CC(C3)C1)C2)*; Palmitoyl = CCCCCCCCCCCCCCCC(=O)*; Lauroyl = CCCCCCCCCCCC(=O)*

Experiments:
[1] = tested on: A. baumannii CAN-ICU 63169; type: cell-based
Protocol: (§1) The synthesized SPRLPs were evaluated for their antibacterial potency against a panel of Gram-positive and Gram-negative bacteria (Tables 2 & 3). Some of the included pathogens were collected from patients visiting or admitted to participating Canadian hospitals through the CAN-ICU (27) and CANWARD (28) national surveillance studies. Antibacterial activity was assessed using minimum inhibitory concentration (MIC) against various clinical pathogens.
(§2) Isolates used in this study were either obtained from the American Type Culture Collection (ATCC), the Canadian National Intensive Care Unit (CAN-ICU) surveillance study (27) or the Canadian Ward Surveillance (CANWARD) study (28). Clinical isolates belonging to the CAN-ICU and CANWARD studies were recovered from patients suffering a presumed infectious disease entering or admitted in a participating medical center across Canada during the time of study. MDR P. aeruginosa strains in this study refer to those that are resistant to aminoglycosides, fluoroquinolones, cephalosporins, and carbapenems while XDR strains are those that are resistant to aminoglycosides, fluoroquinolones, cephalosporins, carbapenems, aztreonam and penicillin+β-lactamase inhibitor combination (39, 40).
(§3) Microbroth dilution susceptibility test following the Clinical and Laboratory Standards Institute (CLSI) guidelines (32) was performed to assess the in vitro antibacterial activity of SPRLPs. Overnight grown bacterial cultures were diluted in saline to achieve a 0.5 McFarland turbidity, followed by 1:50 dilution in Mueller-Hinton broth (MHB) for inoculation to a final concentration of 5×10^5 colony forming units/mL. The assay was done on a 96-well plate to which the agents of interest were 2-fold serially diluted in MHB and incubated with equal volumes of inoculum at 37° C. for 18 hours. MIC was determined as the lowest concentration to inhibit visible bacterial growth in form of turbidity, which was confirmed using EMax Plus microplate reader (Molecular Devices, USA) at a wavelength of 590 nm. The well containing MHB broth with or without bacterial cells was used as positive or negative control, respectively.

E. coli ATCC 25922 = type: cell-based
Protocol: as §1, §2, §3

[2] = tested on: E. coli CAN-ICU 61714 (gentamicin-resistant); type: cell-based
Protocol: as §1, §2, §3

[3] = tested on: E. coli CAN-ICU 63074 (amikacin-intermediate resistant); type: cell-based
Protocol: as §1, §2, §3

[4] = tested on: E. coli CANWARD-2011 97615 (gentamicin-, tobramycin-, ciprofloxacin-resistant) aac(3′)iia; type: cell-based
Protocol: as §1, §2, §3

E. faecalis ATCC 29212 = type: cell-based
Protocol: as §1, §2, §3

E. faecium ATCC 27270 = type: cell-based
Protocol: as §1, §2, §3

K. pneumoniae ATCC 13883 = type: cell-based
Protocol: as §1, §2, §3

P. aeruginosa ATCC 27853 = type: cell-based
Protocol: as §1, §2, §3

[5] = tested on: P. aeruginosa CAN-ICU 62308 (gentamicin-resistant); type: cell-based
Protocol: as §1, §2, §3

[6] = tested on: P. aeruginosa CANWARD-2011 96846 (gentamicin-, tobramycin-resistant); type: cell-based
Protocol: as §1, §2, §3

[7] = tested on: P. aeruginosa wild-type PAO1; type: cell-based
Protocol: as §1, §2, §3

S. aureus ATCC 29213 = type: cell-based
Protocol: as §1, §2, §3

[8] = tested on: S. maltophilia CAN-ICU 62584; type: cell-based
Protocol: as §1, §2, §3

[9] = tested on: methicillin-resistant S. aureus ATCC 33592; type: cell-based
Protocol: as §1, §2, §3

[10] = tested on: methicillin-resistant S. epidermidis CAN-ICU 61589 (ceftazidime-resistant); type: cell-based; conditions: methicillin-resistant CAN-ICU 61589 (ceftazidime-resistant)
Protocol: as §1, §2, §3

[11] = tested on: methicillin-susceptible Staphylococcus epidermidis CANWARD-2008 81388; type: cell-based; conditions: methicillin-susceptible CANWARD-2008 81388
Protocol: as §1, §2, §3

pig erythrocytes = type: cell-based
Protocol: Since PRAMPs are able to kill bacteria through membrane lysis, it is imperative to evaluate whether these synthesized SPRLPs also lyse eukaryotic membranes. The ability to lyse porcine red blood cells was assessed and the minimum concentration to result in 5% erythrocyte hemolysis (MHC) was reported (Tables 2 & 3). […] This greatly limits their therapeutic potential. […] However, all other SPRLPs were non-hemolytic (MHC>512 μg/mL).
The ability of SPRLPs to lyse eukaryotic red blood cells were quantified by the amount of hemoglobin released upon incubation with pig erythrocytes, following published protocols (37, 39). Fresh pig blood drawn from pig antecubital vein was centrifuged at 1000×g for 5 minutes at 4° C., washed with PBS three times and re-suspended in the same buffer, consecutively. Then, agents of interest were 2-fold serially diluted in PBS on 96-well plate and mixed with equal volumes of erythrocyte solution. Post 1-hour incubation at 37° C., intact cells were pelleted by centrifugation at 1000×g for 5 minutes at 4° C. The supernatant was then transferred to a new 96-well plate. The hemoglobin released was measured via EMax Plus microplate reader (Molecular Devices, USA) at 570 nm wavelength. Erythrocytes in PBS with or without 0.1% Triton X-100 was used as negative or positive control, respectively.

[12] = tested on: wild-type and MDR/XDR P. aeruginosa clinical isolates; conditions: checkerboard assay; P. aeruginosa
Protocol: We evaluated the activity of SPRLPs in combination with fifteen clinically-used antibiotics against P. aeruginosa. Antibiotics tested included fluoroquinolones (moxifloxacin, ciprofloxacin and levofloxacin), aminoglycosides (gentamicin, tobramycin and amikacin), cephalosporins (ceftazidime and cefotaxime), carbapenems (meropenem and doripenem), aztreonam, rifampicin, minocycline, colistin and fosfomycin. The SPRLPs were screened initially at a fixed concentration of 8 μg/mL (5 μM) in combination with antibiotics against wild-type P. aeruginosa PAO1. We assessed potentiation by at least a four-fold absolute MIC reduction of the antibiotic, after which synergism was further validated by a conventional checkerboard assay. A fractional inhibitory concentration (FIC) index of ≤0.5, 0.5<x≤4 or >4 was interpreted as synergistic, indifferent or antagonistic interaction, respectively (31). FIC index was obtained by adding the FIC values of the antibiotic and the SPRLP adjuvant. FIC of antibiotics was calculated by dividing the MIC of the antibiotic in the presence of the adjuvant by the MIC of the antibiotic alone. Similarly, the FIC of adjuvant was calculated via dividing the MIC of the adjuvant in the presence of the antibiotic by the MIC of the adjuvant alone.
as §2, §3
The assay was performed on a 96-well plate, to which the agents of interest was 2-fold serially diluted in working MHB. Prior to serial dilution, SPRLP was added to the working MHB media so that a fixed final concentration of 8 μg/mL (5 μM) SPRLP per well was achieved. To ensure that the assay was working, the MIC determination test of the studied antibiotic (without SPRLP) was included on the same plate. Similar MIC results between the assay comparator and an independent MIC determination test (on a different plate) ensured validity of the synergy test. Overnight grown bacterial cultures were diluted in saline to 0.5 McFarland turbidity, followed by 1:50 dilution in MHB (without SPRLP) and inoculation into each well to a final concentration of approximately 5×10^5 colony forming units/mL. Wells containing only MHB (without SPRLP) with or without bacterial cells were used as positive or negative control, respectively.

| MIC [1] [µg/mL] | MIC (E. coli ATCC 25922) [µg/mL] | MIC [2] [µg/mL] | MIC [3] [µg/mL] | MIC [4] [µg/mL] | MIC (E. faecalis ATCC 29212) [µg/mL] | MIC (E. faecium ATCC 27270) [µg/mL] | MIC (K. pneumoniae ATCC 13883) [µg/mL] | MIC (P. aeruginosa ATCC 27853) [µg/mL] | MIC [5] [µg/mL] | MIC [6] [µg/mL] | MIC [7] [µg/mL] | MIC (S. aureus ATCC 29213) [µg/mL] | MIC [8] [µg/mL] | MIC [9] [µg/mL] | MIC [10] [µg/mL] | MIC [11] [µg/mL] | Compound | MHC (minimum concentration that resulted in 5% red blood cell hemolysis) (pig erythrocytes; red cells of porcine) [µg/mL] | MHC (minimum concentration that resulted in 5% red blood cell hemolysis) (pig erythrocytes) [µg/mL] | also measured |
| --- | --- | --- | --- | --- | --- | --- | --- | --- | --- | --- | --- | --- | --- | --- | --- | --- | --- | --- | --- | --- |
| >128 | >128 | >128 | >128 | >128 | >128 | >128 | >128 | >128 | >128 | >128 | >512 | >128 | >128 | >128 | >128 | >128 | N=C(N)NCCC[C@H](NC(=O)[C@@H]1CCCN1C(=O)[C@H](CCCNC(=N)N)NC(=O)[C@@H]1CCCN1C(=O)[C@H](CCCNC(=N)N)NC(=O)[C@@H]1CCCN1C(=O)CC12CC3CC(CC(C3)C1)C2)C(=O)N1CCC[C@H]1C(N)=O [Ad-PRP, Adamantyl-CH2CO-PRPRPRP-NH2] ({Acetyl(1-adamantyl)}-PRPRPRP-NH2) | >512 |  | interaction with minocycline (in words) [12]: indifferent interaction; interaction with rifampicin (in words) [12]: indifferent interaction |
| >128 | >128 | >128 | >128 | >128 | >128 | >128 | >128 | >128 | >128 | >128 | >512 | >128 | >128 | >128 | >128 | 128 | CCCCCCCCCCCC(=O)N1CCC[C@H]1C(=O)N[C@@H](CCCNC(=N)N)C(=O)N1CCC[C@H]1C(=O)NCC(=O)N1CCC[C@H]1C(=O)N[C@@H](CCCNC(=N)N)C(=O)N1CCC[C@H]1C(N)=O [Compound C12-PGP, CH3(CH2)10CO-PRPGPRP-NH2] (Lauroyl-PRPGPRP-NH2) | >512 |  |  |
| >128 | >128 | >128 | >128 | >128 | 128 | 128 | >128 | >128 | >128 | >128 | 512 | 128 | >128 | 128 | 64 | 64 | CCCCCCCCCCCC(=O)N1CCC[C@H]1C(=O)N[C@@H](CCCNC(=N)N)C(=O)N1CCC[C@H]1C(=O)N[C@@H](CC(C)C)C(=O)N1CCC[C@H]1C(=O)N[C@@H](CCCNC(=N)N)C(=O)N1CCC[C@H]1C(N)=O [Compound C12-PLP, CH3(CH2)10CO-PRPLPRP-NH2] (Lauroyl-PRPLPRP-NH2) | >512 |  |  |
| 128 | 128 | 128 | 128 | 128 | 32 | 32 | >128 | >128 | >128 | >128 | 64 | 32 | >128 | 32 | 16 | 16 | CCCCCCCCCCCC(=O)N1CCC[C@H]1C(=O)N[C@@H](CCCNC(=N)N)C(=O)N1CCC[C@H]1C(=O)N[C@@H](Cc1c[nH]c2ccccc12)C(=O)N1CCC[C@H]1C(=O)N[C@@H](CCCNC(=N)N)C(=O)N1CCC[C@H]1C(N)=O [Compound C12-PWP, CH3(CH2)10CO-PRPWPRP-NH2] (Lauroyl-PRPWPRP-NH2) |  | 64 |  |
| 128 | 128 | 64 | 64 | 128 | 64 | 64 | 128 | >128 | >128 | >128 | 32 | 64 | >128 | 64 | 64 | 32 | CCCCCCCCCCCCCCCC(=O)N1CCC[C@H]1C(=O)N[C@@H](CCCNC(=N)N)C(=O)N1CCC[C@H]1C(=O)N[C@@H](CC(C)C)C(=O)N1CCC[C@H]1C(=O)N[C@@H](CCCNC(=N)N)C(=O)N1CCC[C@H]1C(N)=O [Compound C16-PLP, CH3(CH2)14CO-PRPLPRP-NH2] (Palmitoyl-PRPLPRP-NH2) |  | 16 |  |
